Assays:
human M4 receptor = target: T1, human M4 receptor (Homo sapiens, UniProt P08173); test: Radioligand ([3H]N-methylscopolamine) binding assay, CHO cell membranes; settings: 1.5 nM tritiated N-methylscopolamine, 90 minutes at 37° C.; read-out: Binding affinity (Ki) M4
T1 construct: expressed in transfected cells; host or cells: CHO cells
T1 sequence (P08173 1-479): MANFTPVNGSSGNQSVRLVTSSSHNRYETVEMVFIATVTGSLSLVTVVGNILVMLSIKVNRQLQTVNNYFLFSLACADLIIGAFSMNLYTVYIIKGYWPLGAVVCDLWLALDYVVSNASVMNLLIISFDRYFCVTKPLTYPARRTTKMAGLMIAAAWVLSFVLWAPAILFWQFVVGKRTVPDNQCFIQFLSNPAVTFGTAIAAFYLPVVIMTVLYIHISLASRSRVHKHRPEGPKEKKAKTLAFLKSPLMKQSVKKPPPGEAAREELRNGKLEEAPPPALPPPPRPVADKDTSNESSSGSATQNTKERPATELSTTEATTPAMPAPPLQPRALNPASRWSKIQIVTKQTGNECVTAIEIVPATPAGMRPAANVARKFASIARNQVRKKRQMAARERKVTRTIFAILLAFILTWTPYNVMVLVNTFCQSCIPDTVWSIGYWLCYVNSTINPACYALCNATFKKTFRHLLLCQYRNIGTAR
Experimental: (§1) Binding affinity (Ki) of compounds was measured by inhibition of radioligand binding to membranes from CHO cells expressing human M1, M2, M3, M4 and M5 receptors. Membranes were prepared by nitrogen cavitation and differential centrifugation as previously described (Hoare et al., Mol. Pharmacol. 2003 March; 63(3): 751-65). The radioligand employed was tritiated N-methylscopolamine, used at a concentration of 1.5 nM. A dose-response of twelve concentrations of compound was used, ranging from […]. The assay buffer was 50 mM HEPES, 100 mM NaCl, 5 mM MgCl2, 1 mM ethylenediaminetetraacetic acid, pH-adjusted to pH 7.4. Membranes, radioligand and compound were incubated together for 90 minutes at 37° C., in a total volume of 150 μL in a 96-well plate. Receptor-bound radioligand was then collected by harvesting the assay over glass fiber filters pretreated with polyethylenimine to trap the cell membranes, using rapid vacuum filtration. Harvesting and radioactivity counting was conducted as previously described (see, e.g., Hoare et al., Mol. Pharmacol. 2003 63(3):751-65); Erratum at Mol. Pharmacol. 2005 July; 68(1): 260).

human M2 receptor = target: T2, human M2 receptor (Homo sapiens, UniProt P08172); test: as above; settings: 1.5 nM tritiated N-methylscopolamine, 90 minutes at 37° C.; read-out: Binding affinity (Ki) M2
T2 construct: expressed in transfected cells; host or cells: CHO cells
T2 sequence (P08172 1-466): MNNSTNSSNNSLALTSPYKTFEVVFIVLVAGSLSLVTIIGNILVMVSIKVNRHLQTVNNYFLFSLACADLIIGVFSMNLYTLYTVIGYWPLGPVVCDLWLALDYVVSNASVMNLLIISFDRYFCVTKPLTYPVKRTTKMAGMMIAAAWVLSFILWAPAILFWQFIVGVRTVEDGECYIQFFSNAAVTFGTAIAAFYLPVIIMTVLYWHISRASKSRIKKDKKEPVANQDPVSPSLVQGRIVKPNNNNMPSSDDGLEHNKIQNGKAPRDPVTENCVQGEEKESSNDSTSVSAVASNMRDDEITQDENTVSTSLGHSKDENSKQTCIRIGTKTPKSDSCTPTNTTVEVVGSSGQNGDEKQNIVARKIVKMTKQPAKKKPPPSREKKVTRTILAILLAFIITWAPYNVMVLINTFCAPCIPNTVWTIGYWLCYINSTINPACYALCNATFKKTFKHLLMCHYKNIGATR
Experimental: as §1

Ki (human M4 receptor) [nM] | Ki (human M2 receptor) [nM] | SMILES
3 | 520 | C[C@@H]1CN(c2ncc(C#N)cn2)C[C@H](C)N1C(=O)NCCC1CCN(Cc2ccccc2)CC1 [Compound 3A]
4 | 271 | C[C@@H]1CN(c2cnc(C(F)(F)F)cn2)C[C@@H](C)N1C(=O)OCCC1CCN(Cc2ccccc2)CC1 [Compound 2, 2-(1-benzylpiperidin-4-yl)ethyl (2R,6R)-2,6-dimethyl-4-[5-(trifluoromethyl)pyrazin-2-yl]piperazine-1-carboxylate]
5 | 665 | C[C@@H]1CN(c2cnc(C(F)(F)F)cn2)C[C@@H](C)N1C(=O)NCCC1CCN(Cc2ccccc2)CC1 [Compound 4A]
1.8 | 1860 | C[C@@H]1CN(c2cnc(C(F)(F)F)cn2)C[C@H](C)N1C(=O)OCCC1CCN(Cc2ccccc2)CC1 [Compound 1, 2-(1-benzylpiperidin-4-yl)ethyl (2R,6S)-2,6-dimethyl-4-[5-(trifluoromethyl)pyrazin-2-yl]piperazine-1-carboxylate]

From patent US12486250B2, “Muscarinic receptor 4 antagonists and methods of use” (Neurocrine Biosciences, Inc., priority 2019, dated 2025)
